Experimental data as given in patent publication EP2754453A1, “Conjugate of a cationic antimicrobial peptide and of a fatty acid for use as an anti-cancer agent” (UNIVERSITY COLLEGE DUBLIN, priority 2013, dated 2014).
Like-named read-outs stand apart in the source and are kept apart here.

Tests used:
HeLa cells = assay: MTT cell viability assay (anti-proliferation activity); format: cell-based, human
Description: (§1) The colorectal cancer (HT-29), lung carcinoma (A549) and T-cell leukemia (Jurkat) cell lines were maintained as monolayer cultures in RPMI-1640 supplemented with 100 µg/ml streptomycin, 100 U/ml penicillin and 10% (v/v) foetal bovine serum (FBS) (all from Sigma, Ireland). Human glioma (SNB-19), human pancreatic carcinoma (MiaPaCa) and breast carcinoma (MDA-MB-231) cells were obtained from the American Type Culture Collection (ATCC) and maintained in Dulbecco's Modified Eagle's Medium (DMEM) supplemented with 100 µg/ml streptomycin, 100 U/ml penicillin, 2 mM L-glutamine, and 10% (v/v) FBS. The melanoma cell line (WM793) was originally isolated from a superficial spreading melanoma and maintained in DMEM, supplemented with 10% (v/v) FBS, 50 µg/ml gentamicin and 4 µg/ml insulin (Sigma, Ireland). HeLa cells were obtained from the ATCC and maintained in DMEM supplemented with 100 µg/ml streptomycin, 100 U/ml penicillin, 2 mM L-glutamine, 0.1 mM non-essential amino acids (NEAA, Sigma), and 10% (v/v) FBS. Human umbilical vein endothelial cells (HUVEC) cells were obtained from Cambrex and maintained in an endothelial cell growth medium (Lonza, Dublin Ireland). Human Dermal fibroblast (HDF) cells were obtained from the European Collection of Cell Culture (ECACC) and were maintained in DMEM supplemented with 100 µg/ml streptomycin, 100 U/ml penicillin, 2 mM L-glutamine, and 10% (v/v) FBS. All cells were grown in humidified atmosphere of 95% air and 5% CO2 at 37°C.
(§2) Reduction of MTT [(3-(4,5-dimethylthiazol-2-yl)-2,5-diphenyltetrazolium bromide] by cells was assessed colorimetrically as previously described. Assays were carried out after 48 h of cell incubation (72 h for combinational studies) in the media containing test compounds at concentrations ranging from 200 µM to 0.2 µM depending upon compounds being tested.

[1] = system: breast carcinoma (MDA-MB-231) cells; assay: as above; format: cell-based, human; conditions: 48 h incubation, read-out: concentration at which 50% cell growth inhibition occurs (IC50)
Description: as §1, §2

[2] = system: colorectal cancer (HT-29); assay: as above; format: cell-based, human; conditions: HT-29, 48 h incubation; read-out: concentration at which 50% cell growth inhibition occurs (IC50)
Description: as §1, §2

[3] = system: melanoma cell line (WM793); assay: as above; format: cell-based, human; conditions: WM793, 48 h incubation; read-out: concentration at which 50% cell growth inhibition occurs (IC50)
Description: as §1, §2

Human glioma (SNB-19) = assay: as above; format: cell-based; conditions: SNB-19, 48 h incubation; read-out: concentration at which 50% cell growth inhibition occurs (IC50)
Description: as §1, §2

[4] = system: Human umbilical vein endothelial cells (HUVEC); assay: as above; format: cell-based; conditions: 48 h incubation, read-out: concentration at which 50% cell growth inhibition occurs (IC50)
Description: as §1, §2

[5] = system: human pancreatic carcinoma (MiaPaCa); assay: as above; format: cell-based; conditions: 48 h incubation, read-out: concentration at which 50% cell growth inhibition occurs (IC50)
Description: as §1, §2

T-cell leukemia (Jurkat) = assay: as above; format: cell-based, human; conditions: 48 h incubation, read-out: concentration at which 50% cell growth inhibition occurs (IC50)
Description: as §1, §2

HeLa = assay: Western blot analysis of apoptosis markers; format: cell-based, human; conditions: Fig. 5A
Description: (§3) Cells were lyzed and protein levels determined using the bicinchoninic acid method (Pierce, Rockford, IL). Protein samples were separated by SDS-PAGE under reducing conditions. Resolved proteins were transferred to methanol-activated polyvinylidenedifluoride (PVDF) membrane (Millipore, Bedford, MA, USA and blocked in 5% (w/v) bovine serum albumin for 1 h at room temperature. Primary antibody was applied to membranes overnight at 4°C (anti-cleaved Caspase 3, 8, 9 and poly ADP-ribose polymerase (PARP), (1:1000 dilution; Cell Signaling Technology, Danvers, USA). Chemiluminescent signal was detected using the Fluorchem FC2 Imaging System (Alpha Innotech, Switzerland). Membranes were stripped and reprobed with anti-β-actin antibodies (1:1000 dilution; Santa-Cruz Biotechnology, Santa Cruz, USA) so as to provide loading control.

MiaPaCa = assay: Western blot analysis of apoptosis markers; format: cell-based, human; conditions: Fig. 5B
Description: as §3

lung carcinoma (A549) = assay: MTT cell viability assay (anti-proliferation activity); format: cell-based, human; conditions: A549, 48 h incubation; read-out: concentration at which 50% cell growth inhibition occurs (IC50)
Description: as §1, §2

[6] = system: Human Dermal fibroblast (HDF) cells; assay: as above; format: cell-based; conditions: 48 h incubation, read-out: concentration at which 50% cell growth inhibition occurs (IC50)
Description: as §1, §2

MDA-MB-231 = conditions: cited from earlier work
Jurkat = conditions: cited from earlier work
[7] = HeLa, 48 h incubation, read-out: concentration at which 50% cell growth inhibition occurs (IC50)

Substance	IC50 (HeLa cells; [7]) [µM]	IC50 [1] [µM]	IC50 [2] [µM]	IC50 [3] [µM]	IC50 (Human glioma (SNB-19)) [µM]	IC50 [4] [µM]	IC50 [5] [µM]	IC50 (T-cell leukemia (Jurkat)) [µM]	Caspase 8 (HeLa)	apoptotic cell death (activation of caspase 3, 9 and the caspase substrate PARP) (HeLa)	Caspase 8 (MiaPaCa)	apoptotic cell death (activation of caspase 3, 9 and the caspase substrate PARP) (MiaPaCa)	IC50 (HeLa cells; HeLa cells, concentration used in uptake study of biotinylated peptides (Fig. 3A), read-out: approximately the IC50 value) [µM]	IC50 (lung carcinoma (A549)) [µM]	IC50 [6] [µM]	cytotoxic activity (MDA-MB-231)	cytotoxic activity (Jurkat)
Kwklfkkipkflhlakkf (SEQ ID NO: 2) [DP18]	18 ± 0.4	18.6 ± 0.8	17.5 ± 0.5	22.8 ± 0.8	18.6 ± 1.5	100 ± 9	18.9 ± 1.5	–	–	–	–	–	–	–	–	–	–
Kwklfkklpkflhlakkf (SEQ ID NO: 1) [DP18L]	12.7 ± 1.2	13.4 ± 2.4	18.3 ± 0.9	18.7 ± 3	27.3 ± 1.8	140 ± 18	13.9 ± 0.6	4.2 ± 0.6	not detected at significant levels	induces apoptotic cell death	not detected at significant levels	induces apoptotic cell death	–	–	–	–	–
R10-kwklfkklpkflhlakkf [R10DP18L]	2.8 ± 0.3	3.1 ± 0.8	–	–	–	9.2 ± 0.8	–	3 ± 0.5	–	–	–	–	~2.4	2.5 ± 0.7	7.9 ± 0.4	–	–
C10-kwklfkklpkflhlakkf [C10DP18L]	3 ± 0.1	–	–	–	4.3 ± 0.9	–	5 ± 1.5	3.8 ± 0.4	–	–	–	–	–	–	–	–	–
KWKLFKKIPKFLHLAKKF [P18]	–	–	–	–	–	–	–	–	–	–	–	–	–	–	–	displays cytotoxic activity	displays cytotoxic activity
